Read-outs that look alike come from different tables or passages of the source.
How the values were obtained:
[1] = target: Recombinant human JAK2 catalytic domain (Homo sapiens (Human), UniProt O60674); assay: JAK2 kinase assay (Z'-LYTE, Tyr 6 Peptide); type: biochemical
Method: (§1) JAK1/2/3 kinase assay are performed in vitro using Kit-Tyr 6 Peptide (Invitrogen, Cat. No. PV4122). TYK2 kinase assay are performed in vitro using Z′-LYTE™ Kinase Assay Kit-Tyr 3 Peptide (Invitrogen, Cat. No. PV3192). […] All compounds are initially tested at 8 different concentrations (1 μM down to 0.0003 μM) using a 1:3 serial dilution scheme.

[2] = target: Recombinant human JAK3 catalytic domain (Homo sapiens (Human), UniProt P52333); assay: JAK3 kinase assay (Z'-LYTE, Tyr 6 Peptide); type: biochemical
Method: as §1

[3] = read-out: IC50 in JAK2 kinase assay
[4] = read-out: IC50 in JAK3 kinase assay

Recombinant human JAK2 catalytic domain, sequence (O60674 849-1124): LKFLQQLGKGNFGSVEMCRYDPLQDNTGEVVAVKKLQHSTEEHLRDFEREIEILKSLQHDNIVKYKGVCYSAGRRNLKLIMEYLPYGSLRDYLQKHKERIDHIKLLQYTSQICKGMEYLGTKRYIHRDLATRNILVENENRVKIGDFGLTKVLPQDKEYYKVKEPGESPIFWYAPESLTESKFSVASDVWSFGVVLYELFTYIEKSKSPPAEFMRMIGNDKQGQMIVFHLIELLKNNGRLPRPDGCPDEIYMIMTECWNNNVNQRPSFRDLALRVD
Recombinant human JAK3 catalytic domain, sequence (P52333 822-1111): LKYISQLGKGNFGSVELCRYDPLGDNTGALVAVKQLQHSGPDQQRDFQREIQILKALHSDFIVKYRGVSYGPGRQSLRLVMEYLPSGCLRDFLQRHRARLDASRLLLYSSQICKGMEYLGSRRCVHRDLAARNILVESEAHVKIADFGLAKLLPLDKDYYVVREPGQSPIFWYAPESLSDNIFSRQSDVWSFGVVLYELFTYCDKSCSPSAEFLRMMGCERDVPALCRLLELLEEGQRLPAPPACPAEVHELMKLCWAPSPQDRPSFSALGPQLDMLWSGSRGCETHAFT

SMILES | IC50 [1, 3] | IC50 [2, 4] | also measured
CCCC(=O)N(C)[C@@H]1CCN(c2ncnc3[nH]ccc23)C1 [Compound 3] | 100 to 1000 nM | – | –
CN(C(=O)C1(C#N)CC1)[C@@H]1CCN(c2ncnc3[nH]ccc23)C1 [Compound 6] | 100 to 1000 nM | – | –
CN([C@@H]1CCN(c2ncnc3[nH]ccc23)C1)S(=O)(=O)c1cccc(C#N)c1 [Compound 10] | 100 to 1000 nM | – | –
CN([C@@H]1CCN(c2ncnc3[nH]ccc23)C1)S(=O)(=O)c1cccc([N+](=O)[O-])c1 [Compound 12] | 100 to 1000 nM | – | –
CN(C(=O)Nc1ccc(C#N)cc1)[C@@H]1CCN(c2ncnc3[nH]ccc23)C1 [Compound 17] | 100 to 1000 nM | 100 to 1000 nM | –
CN(C(=O)CC(F)(F)F)[C@@H]1CCN(c2ncnc3[nH]ccc23)C1 [Compound 25] | – | 100 to 1000 nM | –
C=CCN(C1CCCC1)[C@@H]1CCN(c2ncnc3[nH]ccc23)C1 [Compound 40] | 1 to 100 nM | 100 to 1000 nM | –
N#Cc1ccc(N(C2CC2)[C@@H]2CCN(c3ncnc4[nH]ccc34)C2)nc1 [Compound 41] | 1 to 100 nM | 100 to 1000 nM | –
N#Cc1ccc2c(c1)CCN2C1CCN(c2ncnc3[nH]ccc23)C1 (stereo not shown) [Compound 46] | 1 to 100 nM | – | –
CC(C)S(=O)(=O)N(C)[C@@H]1CCN(c2ncnc3[nH]ccc23)C1 [Compound 49] | 100 to 1000 nM | – | –
N#CCN(C1CCC1)[C@@H]1CCN(c2ncnc3[nH]ccc23)C1 [Compound 52] | 100 to 1000 nM | – | –
CN(C1CCCC1)[C@@H]1CCN(c2ncnc3[nH]ccc23)C1 [Compound 53] | 100 to 1000 nM | – | –
N#CCN(C1CC1)[C@@H]1CCN(c2ncnc3[nH]ccc23)C1 [Compound 55] | 100 to 1000 nM | – | –
C#CCN(C1CCOC1)[C@@H]1CCN(c2ncnc3[nH]ccc23)C1 (stereo partly shown) [Compound 56] | 100 to 1000 nM | – | –
N#Cc1ccc(N[C@@H]2CCN(c3ncnc4[nH]ccc34)C2)nc1 [Compound 81] | 1 to 100 nM | 100 to 1000 nM | –
CN(c1c(F)cc(C#N)cc1F)[C@@H]1CCN(c2ncnc3[nH]ccc23)C1 [Compound 108] | 100 to 1000 nM | – | –
C#CCN(c1ccc(C#N)cc1F)[C@@H]1CCN(c2ncnc3[nH]ccc23)C1 [Compound 130] | 100 to 1000 nM | – | –
CN(c1ccc(-c2nn[nH]n2)cn1)[C@@H]1CCN(c2ncnc3[nH]ccc23)C1 [Compound 160, (R)—N-(1-(7H-pyrrolo[2,3-d]pyrimidin-4-yl)pyrrolidin-3-yl)-N-methyl-5-(2H-tetrazol-5-yl)pyridin-2-amine] | 100 to 1000 nM | – | –
CN(c1ccc2nn[nH]c2n1)[C@@H]1CCN(c2ncnc3[nH]ccc23)C1 [Compound 167, (R)—N-(1-(7H-pyrrolo[2,3-d]pyrimidin-4-yl)pyrrolidin-3-yl)-N-methyl-3H-[1,2,3]triazolo[4,5-b]pyridin-5-amine] | 100 to 1000 nM | – | –
CN(c1ccc(C(=O)O)cn1)[C@@H]1CCN(c2ncnc3[nH]ccc23)C1 [Compound 170, (R)-6-((1-(7H-pyrrolo[2,3-d]pyrimidin-4-yl)pyrrolidin-3-yl)(methyl)amino)nicotinic acid] | 100 to 1000 nM | – | –
CN(c1ccc(C(=O)N[C@@H](CO)c2ccccc2)cn1)[C@@H]1CCN(c2ncnc3[nH]ccc23)C1 [Compound 176] | 1 to 100 nM | – | –
CN(C(=O)c1ccc(N(C)[C@@H]2CCN(c3ncnc4[nH]ccc34)C2)nc1)c1ccc(F)cc1 [Compound 178] | 100 to 1000 nM | – | –
CN(c1ccc(C(=O)N[C@@H](CO)c2ccccc2)cc1F)[C@@H]1CCN(c2ncnc3[nH]ccc23)C1 [Compound 179] | 1 to 100 nM | – | –
CN(c1ccc(C(=O)Nc2cccc(Cl)c2)cc1F)[C@@H]1CCN(c2ncnc3[nH]ccc23)C1 [Compound 185] | 1 to 100 nM | – | –
CN(c1ccc(C(=O)Nc2ccccc2F)cn1)[C@@H]1CCN(c2ncnc3[nH]ccc23)C1 [Compound 192] | 1 to 100 nM | – | –
CN(c1ccc(C(=O)NC(CO)c2ccc(Cl)cc2)cc1F)[C@@H]1CCN(c2ncnc3[nH]ccc23)C1 (stereo partly shown) [Compound 201] | 1 to 100 nM | – | –
CN(c1ccc(C(=O)NC(CO)c2ccccc2Cl)cc1F)[C@@H]1CCN(c2ncnc3[nH]ccc23)C1 (stereo partly shown) [Compound 207] | 100 to 1000 nM | – | –
CN(c1ccc(NS(=O)(=O)c2ccc(F)cc2)cn1)[C@@H]1CCN(c2ncnc3[nH]ccc23)C1 [Compound 212] | 1 to 100 nM | – | –
CN(c1ccc(S(N)(=O)=O)cn1)[C@@H]1CCN(c2ncnc3[nH]ccc23)C1 [Compound 234] | – | – | IC50 ([2]; read-out: JAK3 (enzyme, IC50)): 86.3 nM

Second part, led by results:

IC50 [1, 3] | IC50 [2, 4] | SMILES | also measured
1 to 100 nM | – | CNS(=O)(=O)N(C)[C@@H]1CCN(c2ncnc3[nH]ccc23)C1 [Compound 47] | IC50 ([2]; read-out: JAK3 (enzyme, IC50)): 157 nM; IC50 ([1]; read-out: JAK2 (enzyme, IC50)): 98 nM
1 to 100 nM | 100 to 1000 nM | CCS(=O)(=O)N(C)[C@@H]1CCN(c2ncnc3[nH]ccc23)C1 [Compound 48] | –
100 to 1000 nM | – | C#CCN(c1ccc(S(C)(=O)=O)cn1)[C@@H]1CCN(c2ncnc3[nH]ccc23)C1 [Compound 58] | –
1 to 100 nM | 100 to 1000 nM | CN(c1ccc(C#N)nn1)[C@@H]1CCN(c2ncnc3[nH]ccc23)C1 [Compound 60] | –
1 to 100 nM | 100 to 1000 nM | CN(c1ccc(C(F)(F)F)nn1)[C@@H]1CCN(c2ncnc3[nH]ccc23)C1 [Compound 62] | –
1 to 100 nM | 100 to 1000 nM | CN(CCC#N)[C@@H]1CCN(c2ncnc3[nH]ccc23)C1 [Compound 64] | –
1 to 100 nM | 1 to 100 nM | CN(c1ccc(F)cn1)[C@@H]1CCN(c2ncnc3[nH]ccc23)C1 [Compound 66] | –
100 to 1000 nM | 100 to 1000 nM | CN(c1ccc([N+](=O)[O-])cn1)[C@@H]1CCN(c2ncnc3[nH]ccc23)C1 [Compound 70] | –
1 to 100 nM | 100 to 1000 nM | CN(c1ccc(C#N)cn1)[C@@H]1CCN(c2ncnc3[nH]ccc23)C1 [Compound 71] | –
100 to 1000 nM | – | Cc1cc(N(C)[C@@H]2CCN(c3ncnc4[nH]ccc34)C2)nc(Cl)c1C#N [Compound 72] | –
1 to 100 nM | 100 to 1000 nM | Cc1cc(Cl)nc(N(C)[C@@H]2CCN(c3ncnc4[nH]ccc34)C2)c1C#N [Compound 73] | –
100 to 1000 nM | 100 to 1000 nM | CN(c1nc(Cl)nc2ccccc12)[C@@H]1CCN(c2ncnc3[nH]ccc23)C1 [Compound 79] | –
1 to 100 nM | 100 to 1000 nM | CN(c1ncnc2ccccc12)[C@@H]1CCN(c2ncnc3[nH]ccc23)C1 [Compound 80] | –
100 to 1000 nM | – | CN(c1ncc(C#N)cc1Cl)[C@@H]1CCN(c2ncnc3[nH]ccc23)C1 [Compound 83] | –
– | 100 to 1000 nM | CN(c1cnc(C#N)cn1)[C@@H]1CCN(c2ncnc3[nH]ccc23)C1 [Compound 84] | –
100 to 1000 nM | – | CN(c1ccc(Cl)nn1)[C@@H]1CCN(c2ncnc3[nH]ccc23)C1 [Compound 85] | –
1 to 100 nM | 100 to 1000 nM | CN(c1nc(Cl)c(C#N)cc1F)[C@@H]1CCN(c2ncnc3[nH]ccc23)C1 [Compound 87] | –
100 to 1000 nM | – | CN(c1ncc(Br)cc1C#N)[C@@H]1CCN(c2ncnc3[nH]ccc23)C1 [Compound 89] | –
100 to 1000 nM | – | CN(c1ccc(C#N)c(Cl)n1)[C@@H]1CCN(c2ncnc3[nH]ccc23)C1 [Compound 90] | –
100 to 1000 nM | – | CN(c1ccc(C#N)cc1Br)[C@@H]1CCN(c2ncnc3[nH]ccc23)C1 [Compound 115] | –
100 to 1000 nM | – | CCOc1cnc(N(C)[C@@H]2CCN(c3ncnc4[nH]ccc34)C2)cn1 [Compound 136] | –
100 to 1000 nM | – | CN(c1ccc(-c2cccs2)cn1)[C@@H]1CCN(c2ncnc3[nH]ccc23)C1 [Compound 147] | –
1 to 100 nM | – | Cc1cc(N(C)[C@@H]2CCN(c3ncnc4[nH]ccc34)C2)ncc1C#N [Compound 157] | –
100 to 1000 nM | – | CN(c1ncc(C#N)cc1F)[C@@H]1CCN(c2ncnc3[nH]ccc23)C1 [Compound 158] | –

Reference: US9346810B2, “Pyrrolopyrimidine compounds and uses thereof” (HUTCHISON MEDIPHARMA LIMITED, priority 2010, dated 2016)
